Some test systems named below: Bacillus subtilis DELTA; Candida parapsilosis; Aureobasidium pullulans; Bacillus megaterium; Micrococcus luteus; Escherichia coli TOP 10; Candida krusei ATCC 6258; Escherichia coli; Salmonella sp.; Yersinia enterocolitica; Staphylococcus aureus.
Holding throughout (experiment): ≥ marks a high value that may be exact or a test limit, other limits are often not marked, values filed in µg/mL are converted to µM
In experiment [1] the test system is Klebsiella aerogenes ATCC 13048.
The subject of experiment [2] is Klebsiella pneumoniae ATCC 700603.
Experiment [3] deals with Lacticaseibacillus casei ATCC 334.
Experiment [4] has as its system Listeria monocytogenes ATCC 7611.
For experiment [5], the system named is Micrococcus luteus ATCC 14452.
Experiment [6] relates to Saccharomyces cerevisiae ATCC 204508.
The subject of experiment [7] is Staphylococcus aureus ATCC 29213.
Experiment [8] relates to Escherichia coli CCT 1371.
For experiment [9], the system named is Pseudomonas aeruginosa ATCC 27853.
The subject of experiment [10] is Staphylococcus aureus ATCC 6535.
The subject of experiment [11] is Staphylococcus saprophyticus.
Experiment [12] relates to Escherichia coli DH5alpha.
Experiment [13] relates to Pseudomonas aeruginosa PAO1.
In experiment [14] the test system is Zymomonas mobilis ATCC 10988.
Experiment [15] concerns Bacillus subtilis ATCC 23857.
The subject of experiment [16] is Candida albicans ATCC 10231.
Experiment [17] concerns Corynebacterium glutamicum ATCC 13032.
The subject of experiment [18] is Escherichia coli ATCC 25922.
Experiment [19] relates to Staphylococcus aureus ATCC 9144.
Experiment [20] concerns Candida albicans ATCC 14053.
In experiment [21] the test system is Candida glabrata ATCC 2001.
Experiment [22] relates to Candida parapsilosis ATCC 22019.
Experiment [23] deals with Staphylococcus aureus ATCC BAA-1683.
In experiment [24] the test system is Salmonella enterica subsp. enterica serovar Enteritidis.
Experiment [25] relates to Staphylococcus aureus ATCC 43300.
The test system of experiment [26] is Candida albicans FRR 5580.
The subject of experiment [27] is Pseudomonas aeruginosa ATCC 9027.
For experiment [28], the system named is Bifidobacterium longum subsp. infantis.

The results in this text go back to DBAASP.

≈ marks a conversion by molar mass, not a printed value.

One may read the MIC as the least concentration at which growth counts as inhibited. `CC[C@H](C)[C@H](NC(=O)[C@H](CC(C)C)NC(=O)[C@H](C)NC(=O)[C@H](Cc1ccccc1)NC(=O)[C@H](C)N)C(=O)N[C@@H](C)C(=O)NCC(=O)N[C@@H](C)C(=O)N[C@@H](CC(C)C)C(=O)N[C@@H](Cc1ccc(O)cc1)C(=O)N[C@@H](CCCN=C(N)N)C(=O)N[C@H](C(=O)N[C@@H](Cc1ccccc1)C(=O)N[C@@H](Cc1cnc[nH]1)C(=O)N[C@@H](CCCN=C(N)N)C(=O)N[C@@H](CCCN=C(N)N)C(=O)O)[C@@H](C)CC` [AFALIAGALYRIFHRR]: the MIC in experiment [1] is no less than 256 µM; in experiment [2], greater than 256 µM; in experiment [3], no less than 256 µM; in experiment [4], 8 µM (≈ 15 µg/mL); in experiment [5] it was 7.5 µM (≈ 14.1 µg/mL); in experiment [6] it was no less than 32 µM. Also, the MIC in experiment [7] turned out to be 3.5 µM (≈ 6.56 µg/mL).
For the compound `CC[C@H](C)[C@H](NC(=O)[C@H](CO)NC(=O)[C@@H](NC(=O)[C@H](CCCCN)NC(=O)[C@H](Cc1ccccc1)NC(=O)[C@@H]1CCCN1C(=O)[C@@H](N)CCC(=O)O)[C@@H](C)CC)C(=O)N[C@@H](Cc1cnc[nH]1)C(=O)N[C@@H](CC(C)C)C(N)=O` [EPFKISIHL], the MIC was 13.8 µM (≈ 15 µg/mL) in experiment [8], 27.7 µM (≈ 30 µg/mL) in experiment [9], 27.7 µM (≈ 30 µg/mL) in experiment [10] and 27.7 µM (≈ 30 µg/mL) in [11].
Turning to `CC[C@H](C)[C@H](NC(=O)[C@H](CC(C)C)NC(=O)[C@H](CCC(N)=O)NC(=O)[C@@H](NC(=O)[C@@H](NC(=O)[C@H](CCCN=C(N)N)NC(=O)[C@H](CCCCN)NC(=O)[C@H](Cc1ccccc1)NC(C)=O)[C@@H](C)CC)C(C)C)C(=O)N[C@@H](CCCCN)C(=O)N[C@@H](CC(=O)O)C(=O)N[C@@H](Cc1ccccc1)C(=O)N[C@@H](CC(C)C)C(=O)N[C@@H](CCCN=C(N)N)C(N)=O` [FKRIVQLIKDFLR], the MIC against Bacillus subtilis DELTA is 11.9 µM (≈ 20.5 µg/mL); with Candida parapsilosis, no less than 59.7 µM; in experiment [12], no less than 59.7 µM; in [13] it was 59.7 µM (≈ 102 µg/mL); in experiment [14] it was no less than 59.7 µM.
Consider `C[C@H](NC(=O)[C@H](CCCCN)NC(=O)[C@H](Cc1c[nH]c2ccccc12)NC(=O)[C@H](Cc1c[nH]c2ccccc12)NC(=O)CNC(=O)[C@@H]1CCCN1C(=O)[C@H](CCCCN)NC(=O)[C@H](CCCCN)NC(=O)CN)C(=O)N[C@@H](CCCCN)C(N)=O` [GKKPGWWKAK], for which the MIC against Aureobasidium pullulans was no less than 52.7 µM; with Bacillus megaterium, 3.29 µM (≈ 3.9 µg/mL); in experiment [15], no less than 105 µM; in [16], 52.7 µM (≈ 62.4 µg/mL); in experiment [17], 3.29 µM (≈ 3.9 µg/mL); in [18], greater than 211 µM. The MIC was no less than 105 µM with Micrococcus luteus, greater than 211 µM in experiment [9] and no less than 211 µM in experiment [19].
In the case of `CC[C@H](C)[C@H](NC(=O)[C@H](CCCCN)NC(=O)[C@H](CO)NC(=O)[C@H](Cc1ccccc1)NC(=O)[C@H](CC(C)C)NC(=O)[C@H](CCCCN)NC(=O)[C@H](CCCCN)NC(=O)[C@H](CC(C)C)NC(=O)CN)C(=O)N[C@@H](CCCCN)C(=O)N[C@H](C(=O)N[C@H](C(=O)NCC(=O)N[C@@H](CO)C(=O)N[C@@H](C)C(=O)N[C@@H](CC(C)C)C(=O)N[C@@H](CCCCN)C(=O)N[C@@H](CC(N)=O)C(=O)N[C@@H](CC(C)C)C(=O)N[C@@H](C)C(N)=O)[C@@H](C)CC)[C@@H](C)CC` [GLKKLFSKIKIIGSALKNLA], the minimal inhibitory concentration (MIC) with Escherichia coli TOP 10 was found to be 1.45 µM (≈ 3.1 µg/mL). In other words, the single-digit micromolar range.
As to `CC[C@H](C)[C@H](N)C(=O)N[C@@H](CC(=O)O)C(=O)N[C@@H](Cc1c[nH]c2ccccc12)C(=O)N[C@@H](Cc1cnc[nH]1)C(=O)N[C@@H](Cc1cnc[nH]1)C(=O)N[C@@H](CC(C)C)C(=O)N[C@@H](CC(C)C)C(=O)N[C@@H](CC(=O)O)C(=O)N[C@@H](C)C(=O)N[C@@H](C)C(=O)N[C@@H](Cc1cnc[nH]1)C(=O)N[C@@H](CCC(N)=O)C(=O)N[C@H](C(=O)N[C@@H](CC(C)C)C(N)=O)[C@@H](C)CC` [IDWHHLLDAAHQIL], the MIC in [20] was no less than 64 µM; in [21], 16 µM (≈ 26.9 µg/mL); in the experiment with Candida krusei ATCC 6258 it was no less than 32 µM; in [22] it was no less than 64 µM.
In the case of `CC(C)C[C@H](NC(=O)[C@H](CC(C)C)NC(=O)[C@H](CC(C)C)NC(=O)[C@H](CC(C)C)NC(=O)[C@H](CCCCN)NC(=O)[C@H](CCCCN)NC(=O)[C@H](CCCCN)NC(=O)[C@@H](N)CCCCN)C(=O)N[C@@H](CCCN=C(N)N)C(=O)N[C@@H](CCCN=C(N)N)C(N)=O` [KKKKLLLLRR], the MIC against Escherichia coli is 386 µM (≈ 500 µg/mL); in [23], no less than 386 µM.
Consider `CC[C@H](C)[C@H](NC(=O)[C@H](CCCN=C(N)N)NC(=O)[C@H](CCCN=C(N)N)NC(=O)[C@@H](NC(=O)[C@@H](NC(=O)[C@H](CCC(N)=O)NC(=O)[C@@H](N)CCCN=C(N)N)[C@@H](C)CC)[C@@H](C)CC)C(=O)N[C@@H](CCC(N)=O)C(=O)N[C@@H](CCCN=C(N)N)C(N)=O` [RQIIRRIQR], for which the MIC in [18] was greater than 40.4 µM; in the experiment with Escherichia coli it was greater than 40.4 µM; in experiment [24], no less than 40.4 µM; with Salmonella sp., no less than 40.4 µM; in experiment [7] it was greater than 40.4 µM; in experiment [25], greater than 40.4 µM. The same compound displayed an MIC in the experiment on Yersinia enterocolitica of no less than 40.4 µM.
Regarding `NCCCC[C@H](NC(=O)[C@H](Cc1c[nH]c2ccccc12)NC(=O)[C@H](Cc1c[nH]c2ccccc12)NC(=O)[C@H](CCCCN)NC(=O)[C@H](Cc1c[nH]c2ccccc12)NC(=O)[C@H](Cc1c[nH]c2ccccc12)NC(=O)[C@@H](N)CCCN=C(N)N)C(N)=O` [RWWKWWK], the MIC in [26] is no less than 54.5 µM; in experiment [27], 27.2 µM (≈ 32 µg/mL).
`CC[C@H](C)[C@H](NC(=O)[C@H](CCC(N)=O)NC(=O)[C@H](C)NC(=O)[C@H](Cc1cnc[nH]1)NC(=O)[C@@H]1CCCN1C(=O)[C@H](CCCN=C(N)N)NC(=O)[C@@H](NC(=O)[C@@H](NC(=O)[C@H](C)NC(=O)[C@@H]1CCCN1C(=O)[C@H](CC(N)=O)NC(=O)[C@H](C)NC(=O)[C@@H](N)Cc1ccc(O)cc1)C(C)C)C(C)C)C(=O)N1CCC[C@H]1C(=O)N[C@@H](CCC(N)=O)C(=O)N[C@@H](CCCN=C(N)N)C(=O)O` [YANPAVVRPHAQIPQR]: the MIC is no less than 1650 µM in experiment [28], greater than 1650 µM in the experiment with Escherichia coli and greater than 1650 µM against Staphylococcus aureus.
